From article PMC6040060, “Identification of a new alanine racemase in Salmonella Enteritidis and its contribution to pathogenesis” (Gut Pathogens, 2018) come the findings set out here.

For assay [1], the system named is T1, DadX.
T1 construct: pET28a-dadX (NheI/XhoI), N-terminal 6xHis tag, E. coli BL21(DE3) Codon Plus, Ni-NTA purified
As to the kind of experiment: coupled spectrophotometric assay, NADH at […] nm (L-alanine dehydrogenase). The assay is classed as biochemical, Salmonella enterica subsp. enterica serovar Enteritidis. As to conditions: D to L direction; 10 μM PLP, 2.5 mM NAD+, Tris-HCl pH 8.0, 37 °C.

Assay [2] deals with T2, SEN3897.
T2 construct: gene alr
As to conditions: read-out: D → L / Km; D to L direction; 10 μM PLP, 2.5 mM NAD+, Tris-HCl pH 8.0, 37 °C.

Assay [3] relates to T1, DadX. As to the kind of experiment: coupled spectrophotometric assay, NADH at […] nm (D-amino acid aminotransferase / L-lactate dehydrogenase). The assay is classed as biochemical, Salmonella enterica subsp. enterica serovar Enteritidis. Conditions: L to D direction; 10 μM PLP, Tris-HCl pH 8.0, 37 °C.
Assay [4] concerns T2, SEN3897. As to conditions: read-out: L → D / Km; L to D direction; 10 μM PLP, Tris-HCl pH 8.0, 37 °C.

Where two headings read alike, the source gives them in different places.

In the case of `C[C@@H](N)C(=O)O` [D-alanine], the Km worked out at 52.8 ± 3 mM in the assay on DadX [1] and 35 ± 6 mM with SEN3897 [2].
On to `C[C@H](N)C(=O)O` [L-alanine], for which the figures for the Km in the assay with DadX [3] and in the assay with SEN3897 [4] were 58.9 ± 2.7 mM and 89.1 ± 10.2 mM, respectively.
